Laboratory results reported in patent US20060229261A1 (priority 2005, published 2006).

Columns and labels:
[1] = system: patients with functional constipation; experiment: Randomized, dose escalation, placebo controlled clinical study; assay type: in vivo, human; conditions: daily diaries, dose escalation phase (25, 50, 100 mg once daily)
From the text: A randomized, dose escalation, placebo controlled study is designed to assess the efficacy of the administered formulation in 60 to 120 patients with functional constipation, defined using the Rome II criteria (modified), i.e., at least […] of two or more of the following symptoms: • i. Straining in >25% of defecations; • ii. Lumpy or hard stools in >25% of defecations; • iii. Sensation of incomplete evacuation in >25% of defecations; • iv. Sensation of anorectal obstruction/blockage in >25% of defecations; • v. Manual maneuvers to facilitate >25%, of defecations (e.g. digital evacuation, support of pelvic floor); and/or • vi. <3 evacuations per week. In addition, loose stools are not present, and there are insufficient criteria for a diagnosis of IBS. Moreover, these patients have no evidence of medical disorders that may cause constipation. Patients are symptomatic on entry in the randomization phase of the study, i.e., in the 8-14 day run-in period, on at least 8 days, which need not be consecutive, patients have lumpy or hard stools in >25% of defecations.
Patients are randomized to one of three groups:
Patients randomized to receive treatments a) or b) will receive 25 mg once daily for the first four weeks, 50 mg once daily for the following four weeks and 100 mg once daily for a further four weeks, providing the previous dose was well tolerated. […]

[2] = system: women patients with IBS-C; conditions: 6 mg twice daily; cited from earlier work
[3] = system: patients with chronic constipation; conditions: two trials versus placebo; cited from earlier work
[4] = primarily as inactive metabolites; cited from earlier work

CN(C)C(=N)N=C(N)N [metformin]
patient's global impression: answer 'yes' to "do you feel better now after treatment" [1]: at least 50 % of the time

CCCCCNC(=N)N/N=C/c1c[nH]c2ccc(OC)cc12.O=C(O)/C=C\C(=O)O [tegaserod, 3-(5-methoxy-1H-indol-3-ylmethylene)-N-pentylcarbazimidamide hydrogen maleate]
global and individual symptoms [2]: effectively improves global and individual symptoms

OC[C@H]1O[C@@H](O[C@@H]2[C@@H](CO)OC(O)(CO)[C@H]2O)[C@H](O)[C@@H](O)[C@H]1O (mixture of isomers) [lactulose]
stool frequency and consistency [3]: more effective than placebo

C[C@H]1O[C@H](O[C@H]2[C@H](O)[C@@H](O)[C@@H](O[C@H]3[C@H](O)[C@@H](O)C(O)O[C@@H]3CO)O[C@@H]2CO)[C@H](O)[C@@H](O)[C@@H]1N[C@H]1C=C(CO)[C@@H](O)[C@H](O)[C@H]1O (stereo partly shown) [acarbose]
oral dose absorbed [4]: About 35%
